Assay results: US10328075B2, “Method of treatment and compounds for use therein” (Baker Heart and Diabetes Institute, priority 2015, dated 2019)

Experiments:
hFPR2 [1] = molecular target: T1, hFPR2 (Homo sapiens, UniProt P25090); test: [Ca2+]i mobilization in FlpIn-CHO cells stably expressing hFPR2; type: cell-based; conditions: for Emax: Flp-In-CHO; for EC50: read-out: pEC50, [Ca^2+]i mobilization, hFPR2-Flpln-CHO (converted); for ΔLog(τ/KA), [Ca^2+]i mobilization, hFPR2-Flpln-CHO: normalized transduction coefficient, reference agonist Cmpd43; for Log(τ/KA), [Ca^2+]i mobilization, hFPR2-Flpln-CHO: transduction coefficient
T1 construct: expressed in transfected cells
T1 sequence (P25090 1-351): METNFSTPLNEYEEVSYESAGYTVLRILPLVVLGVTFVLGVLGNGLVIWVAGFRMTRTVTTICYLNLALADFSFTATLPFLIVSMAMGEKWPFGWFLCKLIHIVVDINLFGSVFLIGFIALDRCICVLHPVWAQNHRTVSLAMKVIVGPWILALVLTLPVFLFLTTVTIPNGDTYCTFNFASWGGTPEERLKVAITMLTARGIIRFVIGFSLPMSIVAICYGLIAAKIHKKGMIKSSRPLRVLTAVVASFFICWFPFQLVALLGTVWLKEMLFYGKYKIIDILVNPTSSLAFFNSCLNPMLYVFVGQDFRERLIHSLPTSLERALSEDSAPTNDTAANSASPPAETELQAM
Source text: (§1) cDNDA construct and generation of stable cell lines: cDNA in pcDNA3.1^+ encoding the human formyl peptide receptors (FPR) subtypes, hFPR1, hFPR2 and hFPR3 was obtained from Invitrogen. The sequences for 3 hFPR receptors were amplified by PCR and cloned into the Gateway entry vector, pDONR202™, using the BP clonase enzyme mix, according to the manufactures' instructions (Invitrogen Inc, Carlsbad, Calif., USA). All hFPR receptors constructs in pDONR201™ were subsequently transfected into the pEF5/FRT/V5/dest vector using the LR clonase enzyme mix (Invitrogen). Receptor constructs (pEF5/FRT/V5/dest) were used to transfect FIp-In CHO cells as described previously (Valant C et al., PNAS, 2014). Cells were selected using 500 μg/mL hydromycin to generate cell lines stably expressing each receptor construct. Cells were maintained and cultured in high glucose DMEM supplemented with 10% FBS, 16 mM HEPES and 500 μg/mL hydromycin at 37° C. under a humidified atmosphere containing 5% CO2.
(§2) In the various assays described below, cells were plated into 96-well transparent cell culture plates at 4×10^4 cells per well, cultured overnight in serum-free media at 37° C. in 5% CO2.
Intracellular calcium mobilization: Intracellular calcium mobilization was assayed as described previously (Keov, P et al., 2014). Briefly, cells were washed once using HEPES buffered saline (HBS) solution [150 mM NaCl, 2.2 mM CaCl2, 2.6 mM KCl, 1.2 mM MgCl2, 10 mM HEPEs, 10 mM D-Glucose, 0.5% (w/v) bovine serum albumin (BSA) and 4 mM probenecid] at pH 7.4, then treated with Fluo-4-AM (1 μM, in HBS/BSA/probenecid) for 60 min at 37° C. in 5% CO2 in the dark. Cells were then further washed and placed in HBS/BSA/probenecid solution for ligation addition and assay using the FLEXstation 3 plate reader (Molecular Devices, Sunnyvale, Calif.). For all experiments, peak change in fluorescence signal was normalized to the cellular response to 100 μM ATP, which was used as an internal positive control.
(§3) Data analysis: All data were analysed using GraphPad Prism 6.0 (GraphPad Software, San Deigo, Calif., USA). Where appropriate, concentration-response curves were fitted to derive the maximal agonist effect (Emax), and the ligand potency estimate (pEC50), where Emax is the maximal possible response of the system (not the agonist), basal is the basal level of response in the absence of agonist, and pEC50 is the negative logarithm of the agonist concentration that gives a response halfway between Emax and basal.
(§4) In the present study, FIp-IN CHO cells and Gateway plasmid were obtained from Invitrogen Inc (Carlsbad, Calif., USA). The sequences for all 3 known human FPRs (hFPR1, hFPR2 and hFPR3) were amplified by PCR and cloned into the Gateway entry vector, pDONR202TM, using the BP clonase enzyme mix, according to the manufacturers' instructions. The hFPR pDONR201TM constructs were subsequently transfected into the pEF5/FRT/V5/dest vector using the LR clonase enzyme mix (Invitrogen). Receptor constructs (pEF5/FRT/V5/dest) were used to transfect FIp-IN CHO cells, as described previously (Valant et al. 2014). Cells were selected using 500 μg/mL hydromycin to generate cell lines stably expressing each human receptor construct. Cells were maintained and cultured in high glucose Dulbecco's modified eagle medium (DMEM) supplemented with 10% fetal bovine serum (FBS, from JRH Biosciences, Lenexa, Kans., USA) and 500 μg/mL hydromycin B (Invitrogen Inc) at 37° C. under a humidified atmosphere containing 5% CO2. Cell were plated into 96-well transparent cell culture plates at 4×10^4 cells per well, cultured overnight in serum-free media at 37° C. in 5% CO2.
(ii) Intracellular Ca2+ mobilization: Intracellular Ca2+ mobilization was determined in stably-transfected recombinant hFPR CHO cells, as described previously (Valant et al. 2014).

hFPR2 [2] = molecular target: T1, hFPR2; test: Akt (Thr308) phosphorylation in hFPR2-FlpIn-CHO cells; type: cell-based; conditions: for ΔLog(τ/KA), Akt 1/2/3 (Thr308) phosphorylation, hFPR2-Flpln-CHO: normalized transduction coefficient, reference agonist Cmpd43; for Log(τ/KA), Akt 1/2/3 (Thr308) phosphorylation, hFPR2-Flpln-CHO: transduction coefficient
Source text: as §1, §2
Measurement of Akt1/2/3 phosphorylation and Akt 1: The same lysate was used for measurement of Akt1/2/3 phosphorylation (Ser473) and Akt1 (Thr308). Cells were lysed in SureFire lysis buffer and transferred to 384-well opaque proxiplates. Under low-light conditions, a 1:10:40 (v:v:v) dilution of AlphaScreen acceptor beads:Surefire activation buffer:Surefire reaction buffer was prepared and the plate was incubated in the dark at RT for 2 h. Then, a 1:20 (v:v) dilution of AlphaScreen donor beads/dilution was prepared and incubated in the dark at RT for another 2 h, before the fluorescence signal was measured by used of a Fusion-α plate reader (PerkinElmer Life and Analytical Sciences) with standard AlphaScreen settings. Receptor mediated phosphorylation of Akt1/2/3 (Ser473) and Akt1 (Thr308) were determined using the AlphaScreen™ […] SureFire™ kit, as per as per manufacturer's instructions. Data were normalized to the maximal response elicited by 10% (v:v) FBS at the same time point.
as §3, §4

[3] = Table 1, percentage of [Ca^2+]i mobilization elicited by ATP, read-out: Emax (%), [Ca^2+]i mobilization, hFPR2-Flpln-CHO
[4] = Table 8, percent of response elicited by ATP, read-out: Emax, [Ca^2+]i mobilization, hFPR2-Flpln-CHO
[5] = Table 3, percentage of Akt1/2/3 phosphorylation elicited by 10% FBS, read-out: Emax (%), Akt 1 (Thr308) phosphorylation, hFPR2-Flpln-CHO
[6] = Table 8, percent of response elicited by 10% FBS, read-out: Emax, Akt 1/2/3 (Thr308) phosphorylation, hFPR2-Flpln-CHO

Question: How did the Emax (hFPR2 [1]; [3]) turn out when `CC(C)C1C(NC(=O)Nc2ccc(Cl)cc2)C(=O)N(c2ccccc2)N1C` (stereo not drawn) [BIDI-002] was run?
Answer: 51 ± 3%

Question: And the Emax (hFPR2 [1]; [4])?
Answer: 51 ± 3%

Question: What about the EC50 (hFPR2 [1]; Table 1) of the same compound?
Answer: 20.9 nM

Question: What about the “ΔLog(τ/KA), [Ca^2+]i mobilization, hFPR2-Flpln-CHO” value (hFPR2 [1]; Table 8) of the same compound?
Answer: 0.0

Question: What about the EC50 (hFPR2 [1]; Table 8) of the same compound?
Answer: 20 nM

Question: What about the “Log(τ/KA), [Ca^2+]i mobilization, hFPR2-Flpln-CHO” value (hFPR2 [1]; Table 8) of the same compound?
Answer: 7.7 ± 0.3

Question: What about the Emax (hFPR2 [2]; [5]) of the same compound?
Answer: 27 ± 2%

Question: And the EC50 (hFPR2 [2]; Table 3, read-out: pEC50, Akt 1 (Thr308) phosphorylation, hFPR2-Flpln-CHO (converted))?
Answer: 138 nM

Question: What about the “ΔLog(τ/KA), Akt 1/2/3 (Thr308) phosphorylation, hFPR2-Flpln-CHO” value (hFPR2 [2]; Table 8) of the same compound?
Answer: 0.0

Question: And the Emax (hFPR2 [2]; [6])?
Answer: 27 ± 2%

Question: What about the EC50 (hFPR2 [2]; Table 8, read-out: pEC50, Akt 1/2/3 (Thr308) phosphorylation, hFPR2-Flpln-CHO (converted)) of the same compound?
Answer: 126 nM

Question: What about the “Log(τ/KA), Akt 1/2/3 (Thr308) phosphorylation, hFPR2-Flpln-CHO” value (hFPR2 [2]; Table 8) of the same compound?
Answer: 7.0 ± 0.2

Question: Which results are given for `CSCC[C@H](NC=O)C(=O)N[C@@H](CC(C)C)C(=O)N[C@@H](Cc1ccccc1)C(=O)O` [fMLP, N-formyl-Met-Leu-Phe]?
Answer: Emax (hFPR2 [1]; [3]): 38 ± 4%; Emax (hFPR2 [1]; [4]): 38 ± 4%; ΔLog(τ/KA), [Ca^2+]i mobilization, hFPR2-Flpln-CHO (hFPR2 [1]; Table 8): −2.2 ± 0.3; Log(τ/KA), [Ca^2+]i mobilization, hFPR2-Flpln-CHO (hFPR2 [1]; Table 8): 5.4 ± 0.1; Potency range of Ca^2+ mobilization in hFPR2-CHO cells (hFPR2 [1]; in words): micromolar range; Emax (hFPR2 [2]; [5]): 7 ± 2%; ΔLog(τ/KA), Akt 1/2/3 (Thr308) phosphorylation, hFPR2-Flpln-CHO (hFPR2 [2]; Table 8): −2.1 ± 0.3; Emax (hFPR2 [2]; [6]): 21 ± 2%; Log(τ/KA), Akt 1/2/3 (Thr308) phosphorylation, hFPR2-Flpln-CHO (hFPR2 [2]; Table 8): 4.8 ± 0.1
